Values of other authors as cited in US6790668B1, “Monitoring patient compliance and bioavailability of drugs by deproteinizing body fluids” (Fundacao Oswaldo Cruz - Fiocruz, priority 1998, dated 2004).

Tests used:
[1] = organic solvents; acid pH water
[2] = human body; the rest by the kidneys

- Share of the drug eliminated in the bile [2]: about 80%
Structure (SMILES): CO[C@H]1/C=C/O[C@@]2(C)Oc3c(C)c(O)c4c(O)c(c(/C=N/N5CCN(C)CC5)c(O)c4c3C2=O)NC(=O)/C(C)=C\C=C\[C@H](C)[C@H](O)[C@@H](C)[C@@H](O)[C@@H](C)[C@H](OC(C)=O)[C@@H]1C [rifampicin]
- Solubility [1]: soluble both in organic solvents and in acid pH water
